Results from patent publication EP4722201A1, “3-PHENYLISOXAZOLINE-5-CARBOXAMIDE COMPOUND, AND PREPARATION METHOD THEREFOR, HERBICIDAL COMPOSITION THEREOF AND USE THEREOF” (Jiangsu Flag Chemical Industry Co., Ltd, priority 2023, dated 2024).

Experiments:
Assay in all cases: Indoor herbicide activity determination, Seed Treatment; pre-emergence (soil spray)
Type in all cases: in vivo
Aegilops tauschii = settings: read-out: Herbicidal activities (inhibition rate) Aegilops tauschii; for inhibition at 120 g/ha: 120 g a.i./ha; for inhibition at 60 g/ha: 60 g a.i./ha
Text: (§1) The testing method for herbicide activity of the compound of the present invention was as follows:
(§2) Seed Treatment; pre-emergence: quantitative seeds of gramineous weeds (Echinochloa crusgalli, Eleusine indica, Digitaria sanguinalis, Alopecurus japonicus, Beckmannia syzigachne, Leptochloa chinensis, Polypogon fugax, Alopecurus aequalis, Lolium multiflorum, Poa annua, Aegilops tauschii, Avena fatua, Alopecurus myosuroides, Alopecurus japonicus and Alopecurus aequalis), broad-leaved weeds (Eclipta prostrata, Amaranthus retroflexus, Rorippa indica, Malachium aquaticum, Veronica polita, Conyza canadensis, Sesbania cannabina, Sagittariatrifolia and Schoenoplectiella juncoides), and Cyperus iria were sown in plastic pots having a diameter of 7 cm and holes at the bottom and filled with nutrient soil (sandy soil, pH 6.1, organic matter 1%) respectively, the seeds were covered with an appropriate amount of soil after being sown, then the soil was wetted with water from the bottom, the seeds were cultured in a constant-temperature illuminated culture room for 24 h, and the soil was sprayed by using a 3WP-2000 traveling spray tower produced by the Nanjing Institute of Agricultural Mechanization of the Ministry of Agriculture, where a rotational speed of a main shaft was 96 mm/r, a spray height was 300 mm, an effective spraying range of a nozzle was 350 mm, a spray area was 0.35 m^2, and a flow rate at the nozzle was 390 mL/min.
(§3) Post-emergence: an appropriate quantity of seeds of gramineous weeds (Echinochloa crusgalli, Eleusine indica, Digitaria sanguinalis, Alopecurus japonicus, Beckmannia syzigachne, Leptochloa chinensis, Polypogon fugax, Alopecurus aequalis, Lolium multiflorum, Poa annua, Aegilops tauschii, Avena fatua, Alopecurus myosuroides, Alopecurus japonicus and Alopecurus aequalis), broad-leaved weeds (Eclipta prostrata, Amaranthus retroflexus, Rorippa indica, Malachium aquaticum, Veronica polita, Conyza canadensis, Sesbania cannabina, Sagittariatrifolia and Schoenoplectiella juncoides), and Cyperus iria were sown in plastic pots having a diameter of 7 cm and holes at the bottom and filled with nutrient soil (sandy soil, pH 6.1, organic matter 1%) respectively, the seeds were covered with an appropriate amount of soil after being sown, then the soil was wetted with water from the bottom, the seeds were cultured in a constant-temperature illuminated culture room until a 2-4 leaf stage, and stems and leaves underwent spray treatment. After the treatment, the test materials were placed in a laboratory and cultured in the constant-temperature illuminated culture room after the liquid was naturally dry in the shade, and results were determined 21 days later. Inhibition rate of fresh weight % = (1−(fresh weight of treated plants)/(fresh weight of control plants)) × 100% [formula]

Alopecurus japonicus = tested on: Alopecurus japonicus
Text: as §1, §2, §3

Alopecurus myosuroides = tested on: Alopecurus myosuroides
Text: as §1, §2, §3

Cyperus iria = settings: read-out: Herbicidal activities (inhibition rate) Cyperus iria; for inhibition at 120 g/ha: 120 g a.i./ha; for inhibition at 60 g/ha: 60 g a.i./ha
Text: as §1, §2, §3

Eclipta prostrata = settings: read-out: Herbicidal activities (inhibition rate) Eclipta prostrata; for inhibition at 120 g/ha: 120 g a.i./ha; for inhibition at 60 g/ha: 60 g a.i./ha
Text: as §1, §2, §3

Eleusine indica = tested on: Eleusine indica
Text: as §1, §2, §3

Leptochloa chinensis = tested on: Leptochloa chinensis
Text: as §1, §2, §3

Lolium multiflorum = tested on: Lolium multiflorum
Text: as §1, §2, §3

Compound | inhibition at 120 g/ha (Aegilops tauschii) [%] | inhibition at 120 g/ha (Cyperus iria) [%] | inhibition at 120 g/ha (Eclipta prostrata) [%] | inhibition at 60 g/ha (Aegilops tauschii) [%] | Herbicidal activities, Alopecurus japonicus (inhibition rate class) (Alopecurus japonicus; Dosage 120 g a.i./ha) | Herbicidal activities, Alopecurus myosuroides (inhibition rate class) (Alopecurus myosuroides; Dosage 120 g a.i./ha) | inhibition at 60 g/ha (Cyperus iria) [%] | inhibition at 60 g/ha (Eclipta prostrata) [%] | Herbicidal activities, Eleusine indica (inhibition rate class) (Eleusine indica; Dosage 120 g a.i./ha) | Herbicidal activities, Leptochloa chinensis (inhibition rate class) (Leptochloa chinensis; Dosage 120 g a.i./ha) | Herbicidal activities, Lolium multiflorum (inhibition rate class) (Lolium multiflorum; Dosage 120 g a.i./ha) | other results
C=CC1(C(=O)N[C@H]2C[C@@H](C(=O)OCCS(C)(=O)=O)C2)CC(c2cc(F)cc(F)c2)=NO1 (stereo partly shown) [I-10] | 80 to 100 | 80 to 100 | 60 to 80 | – | – | – | – | – | – | – | – | Herbicidal activities, Alopecurus japonicus (inhibition rate class) (Alopecurus japonicus; Dosage 240 g a.i./ha): A (A indicates that the inhibition rate was greater than or equal to 80% to 100%); Herbicidal activities, Alopecurus myosuroides (inhibition rate class) (Alopecurus myosuroides; Dosage 240 g a.i./ha): A (A indicates that the inhibition rate was greater than or equal to 80% to 100%); Herbicidal activities, Eleusine indica (inhibition rate class) (Eleusine indica; Dosage 240 g a.i./ha): A (A indicates that the inhibition rate was greater than or equal to 80% to 100%); Herbicidal activities, Leptochloa chinensis (inhibition rate class) (Leptochloa chinensis; Dosage 240 g a.i./ha): A (A indicates that the inhibition rate was greater than or equal to 80% to 100%); Herbicidal activities, Lolium multiflorum (inhibition rate class) (Lolium multiflorum; Dosage 240 g a.i./ha): A (A indicates that the inhibition rate was greater than or equal to 80% to 100%)
C=CC1(C(=O)N[C@H]2C[C@@H](C(=O)OCC[S+](C)[O-])C2)CC(c2cc(F)cc(F)c2)=NO1 (stereo partly shown) [I-9] | 80 to 100 | 80 to 100 | 60 to 80 | – | – | – | – | – | – | – | – | Herbicidal activities, Alopecurus japonicus (inhibition rate class) (Alopecurus japonicus; Dosage 240 g a.i./ha): A (A indicates that the inhibition rate was greater than or equal to 80% to 100%); Herbicidal activities, Alopecurus myosuroides (inhibition rate class) (Alopecurus myosuroides; Dosage 240 g a.i./ha): A (A indicates that the inhibition rate was greater than or equal to 80% to 100%); Herbicidal activities, Eleusine indica (inhibition rate class) (Eleusine indica; Dosage 240 g a.i./ha): A (A indicates that the inhibition rate was greater than or equal to 80% to 100%); Herbicidal activities, Leptochloa chinensis (inhibition rate class) (Leptochloa chinensis; Dosage 240 g a.i./ha): A (A indicates that the inhibition rate was greater than or equal to 80% to 100%); Herbicidal activities, Lolium multiflorum (inhibition rate class) (Lolium multiflorum; Dosage 240 g a.i./ha): A (A indicates that the inhibition rate was greater than or equal to 80% to 100%)
C=C[C@]1(C(=O)N[C@H]2C[C@@H](C(=O)NOC)C2)CC(c2cc(F)cc(F)c2)=NO1 [I-23] | – | – | – | 80 to 100 | A (A indicates that the inhibition rate was greater than or equal to 80% to 100%) | A (A indicates that the inhibition rate was greater than or equal to 80% to 100%) | 80 to 100 | 60 to 80 | A (A indicates that the inhibition rate was greater than or equal to 80% to 100%) | A (A indicates that the inhibition rate was greater than or equal to 80% to 100%) | A (A indicates that the inhibition rate was greater than or equal to 80% to 100%) | –
C=C[C@]1(C(=O)N[C@H]2C[C@@H](C(=O)NOC(C)C)C2)CC(c2cc(F)cc(Cl)c2)=NO1 [I-36] | – | – | – | 60 to 80 | A (A indicates that the inhibition rate was greater than or equal to 80% to 100%) | A (A indicates that the inhibition rate was greater than or equal to 80% to 100%) | 60 to 80 | 60 to 80 | A (A indicates that the inhibition rate was greater than or equal to 80% to 100%) | A (A indicates that the inhibition rate was greater than or equal to 80% to 100%) | B (B indicates that the inhibition rate was greater than or equal to 60% to less than 80%) | –
C=C[C@]1(C(=O)N[C@H]2C[C@@H](C(=O)OCC=CC)C2)CC(c2cc(F)cc(Cl)c2)=NO1 [I-32] | – | – | – | 60 to 80 | B (B indicates that the inhibition rate was greater than or equal to 60% to less than 80%) | A (A indicates that the inhibition rate was greater than or equal to 80% to 100%) | 60 to 80 | 80 to 100 | A (A indicates that the inhibition rate was greater than or equal to 80% to 100%) | A (A indicates that the inhibition rate was greater than or equal to 80% to 100%) | B (B indicates that the inhibition rate was greater than or equal to 60% to less than 80%) | –
C=C[C@]1(C(=O)N[C@H]2C[C@@H](C(=O)OCCCCC)C2)CC(c2cc(F)cc(Cl)c2)=NO1 [I-31] | – | – | – | 60 to 80 | – | A (A indicates that the inhibition rate was greater than or equal to 80% to 100%) | 60 to 80 | 80 to 100 | A (A indicates that the inhibition rate was greater than or equal to 80% to 100%) | A (A indicates that the inhibition rate was greater than or equal to 80% to 100%) | – | –
C=C[C@]1(C(=O)N[C@H]2C[C@@H](C(=O)OCC(F)(F)C(F)F)C2)CC(c2cc(F)cc(OC(F)(F)F)c2)=NO1 [I-64] | – | – | – | 60 to 80 | A (A indicates that the inhibition rate was greater than or equal to 80% to 100%) | A (A indicates that the inhibition rate was greater than or equal to 80% to 100%) | – | 80 to 100 | B (B indicates that the inhibition rate was greater than or equal to 60% to less than 80%) | A (A indicates that the inhibition rate was greater than or equal to 80% to 100%) | A (A indicates that the inhibition rate was greater than or equal to 80% to 100%) | –
C=C[C@]1(C(=O)N[C@H]2C[C@@H](C(=O)O[C@@H](C)COC)C2)CC(c2cc(F)cc(Cl)c2)=NO1 [I-34] | – | – | – | 60 to 80 | B (B indicates that the inhibition rate was greater than or equal to 60% to less than 80%) | A (A indicates that the inhibition rate was greater than or equal to 80% to 100%) | 60 to 80 | 80 to 100 | A (A indicates that the inhibition rate was greater than or equal to 80% to 100%) | A (A indicates that the inhibition rate was greater than or equal to 80% to 100%) | B (B indicates that the inhibition rate was greater than or equal to 60% to less than 80%) | –
COC(=O)[C@@H]1C=C[C@H](NC(=O)C2(C)CC(c3cc(F)cc(C(F)(F)F)c3)=NO2)C1 (stereo partly shown) [I-495] | 80 to 100 | 80 to 100 | 60 to 80 | – | – | – | – | – | – | – | – | Herbicidal activity (inhibition rate class), Alopecurus japonicus (Alopecurus japonicus; Dosage 240 g a.i./ha): A (A indicates that the inhibition rate was greater than or equal to 80% to 100%); Herbicidal activity (inhibition rate class), Alopecurus myosuroides (Alopecurus myosuroides; Dosage 240 g a.i./ha): A (A indicates that the inhibition rate was greater than or equal to 80% to 100%); Herbicidal activity (inhibition rate class), Eleusine indica (Eleusine indica; Dosage 240 g a.i./ha): A (A indicates that the inhibition rate was greater than or equal to 80% to 100%); Herbicidal activity (inhibition rate class), Leptochloa chinensis (Leptochloa chinensis; Dosage 240 g a.i./ha): A (A indicates that the inhibition rate was greater than or equal to 80% to 100%); Herbicidal activity (inhibition rate class), Lolium multiflorum (Lolium multiflorum; Dosage 240 g a.i./ha): A (A indicates that the inhibition rate was greater than or equal to 80% to 100%)
C=C[C@]1(C(=O)N[C@H]2C[C@@H](C(=O)OCCOCC)C2)CC(c2cc(F)cc(OC(F)(F)F)c2)=NO1 [I-65] | – | – | – | 80 to 100 | A (A indicates that the inhibition rate was greater than or equal to 80% to 100%) | A (A indicates that the inhibition rate was greater than or equal to 80% to 100%) | – | 60 to 80 | B (B indicates that the inhibition rate was greater than or equal to 60% to less than 80%) | A (A indicates that the inhibition rate was greater than or equal to 80% to 100%) | A (A indicates that the inhibition rate was greater than or equal to 80% to 100%) | –
